# Reference: EP0093484A2, “Antibacterial monic acid derivatives” (BEECHAM GROUP PLC, priority 1982, dated 1983)
# Read-outs that look alike come from different tables or passages of the source.
# Assays:
# M. suipneumoniae NB12 = experiment: Anti-mycoplasmal activity, MIC in Friis broth agarose; type: cell-based; conditions: Friis broth solidified with 0.9% agarose, 6 days incubation at 37°C
# [1] = system: M. suipneumoniae PW/C/210; experiment: as above; type: cell-based; conditions: Friis broth solidified with 0.9% agarose, 6 days incubation at 37°C
# M. suipneumoniae TAM 6N = experiment: as above; type: cell-based; conditions: Friis broth solidified with 0.9% agarose, 6 days incubation at 37°C
# M. hyorhinis ATCC 25021 = experiment: as above; type: cell-based; conditions: Friis broth solidified with 0.9% agarose, 6 days incubation at 37°C
# M. dispar NCTC 10125 = experiment: as above; type: cell-based; conditions: Friis broth solidified with 0.9% agarose, 6 days incubation at 37°C
# M. gallisepticum S6 = experiment: as above; type: cell-based; conditions: Friis broth solidified with 0.9% agarose, 6 days incubation at 37°C
# Ps. aeruginosa 10662 = experiment: Human bacteria, MIC by serial dilution in nutrient agar; type: cell-based; conditions: nutrient agar with 5% chocolated horse blood, 18 hours at 37°C
# [2] = system: Neisseria catarrhalis 1502; experiment: as above; type: cell-based; conditions: nutrient agar with 5% chocolated horse blood, 18 hours at 37°C
# Staph. aureus Oxford = experiment: as above; type: cell-based; conditions: Staph. aureus Oxford (human panel), nutrient agar with 5% chocolated horse blood, 18 hours at 37°C
# Strep. agalactiae 2788-B = experiment: as above; type: cell-based; conditions: nutrient agar with 5% chocolated horse blood, 18 hours at 37°C
# Strep. pneumoniae CN33 = experiment: as above; type: cell-based; conditions: nutrient agar with 5% chocolated horse blood, 18 hours at 37°C
# E. coli E1 = experiment: Veterinary bacteria, MIC by two fold serial dilution in agar
# Procedure: (§1) The activity of the compounds of the Examples against various organisms important in veterinary infections was determined using two fold serial dilutions in Diagnostic Sensitivity Test Agar inoculated with 10^4 organisms.
# S. dublin S7 = experiment: as above
# Procedure: as §1
# S. typhimurium S18 = experiment: as above
# Procedure: as §1
# Bord. bronchiseptica B08 = experiment: as above
# Procedure: as §1
# Past. haemolytica PA5 = experiment: as above
# Procedure: as §1
# [3] = system: Erysipelothrix rhusiopathiae NCTC 8163; experiment: as above
# Procedure: as §1
# [4] = system: Staph. aureus B4 (pen. resistant); experiment: as above
# Procedure: as §1
# [5] = E. coli E1, Diagnostic Sensitivity Test Agar, 18 hours at 37°C
# [6] = S. dublin S7, Diagnostic Sensitivity Test Agar, 18 hours at 37°C
# [7] = S. typhimurium S18, Diagnostic Sensitivity Test Agar, 18 hours at 37°C
# [8] = Bord. bronchiseptica B08, Diagnostic Sensitivity Test Agar, 18 hours at 37°C
# [9] = Past. haemolytica PA5, Diagnostic Sensitivity Test Agar, 18 hours at 37°C
# [10] = Erysipelothrix rhusiopathiae NCTC 8163, Diagnostic Sensitivity Test Agar, 18 hours at 37°C
# [11] = Staph. aureus B4 (pen. resistant), Diagnostic Sensitivity Test Agar, 18 hours at 37°C
# [12] = Mesomycoplasma hyopneumoniae, 144 h, read-out: MIC
# [13] = Mesomycoplasma hyopneumoniae, TAM6N, 144 h, read-out: MIC
# [14] = Mesomycoplasma hyorhinis, ATCC25021, 144 h, read-out: MIC
# [15] = Mycoplasmoides gallisepticum, 144 h, read-out: MIC
# [16] = Pseudomonas aeruginosa, read-out: MIC
# [17] = Staphylococcus aureus, read-out: MIC
# [18] = Streptococcus agalactiae, read-out: MIC
# [19] = Streptococcus pneumoniae, read-out: MIC
# [20] = Salmonella enterica, TYPHIMURIUM, 18 h
# [21] = Bordetella bronchiseptica, B08, 18 h
# [22] = Mannheimia haemolytica, PA5, 18 h
# [23] = Erysipelothrix rhusiopathiae, NCTC8163, 18 h
Molecule,MIC (M. suipneumoniae NB12; [12]),"MIC [1, 12]",MIC (M. suipneumoniae TAM 6N; [13]),MIC (M. hyorhinis ATCC 25021; [14]),"MIC (M. dispar NCTC 10125; 144 h, read-out: MIC)",MIC (M. gallisepticum S6; [15]),MIC (Ps. aeruginosa 10662; [16]),MIC ([2]; read-out: MIC),MIC (Staph. aureus Oxford; [17]),MIC (Strep. agalactiae 2788-B; [18]),MIC (Strep. pneumoniae CN33; [19]),"MIC (E. coli E1; Escherichia coli, E1, 18 h)","MIC (S. dublin S7; Salmonella enterica, S7, 18 h)",MIC (S. typhimurium S18; [20]),MIC (Bord. bronchiseptica B08; [21]),MIC (Past. haemolytica PA5; [22]),"MIC [3, 23]","MIC ([4]; Staphylococcus aureus, 18 h)",further results
1-(p-Methylsulfinylphenyl)ethyl monate A [Example 8],–,–,–,–,–,–,–,–,–,–,–,–,–,–,–,–,–,–,"MIC (M. suipneumoniae NB12): 2.5 µg/mL; MIC [1]: 1.0 µg/mL; MIC (M. suipneumoniae TAM 6N): 2.5 µg/mL; MIC (M. hyorhinis ATCC 25021): 1.0 µg/mL; MIC (M. dispar NCTC 10125): 0.5 µg/mL; MIC (M. gallisepticum S6): 10 µg/mL; MIC (Ps. aeruginosa 10662): >128 µg/mL; MIC [2]: 4.0 µg/mL; MIC (Staph. aureus Oxford): 16 µg/mL; MIC (Strep. agalactiae 2788-B): 8.0 µg/mL; MIC (Strep. pneumoniae CN33): 8.0 µg/mL; MIC (E. coli E1; [5]): >80 µg/mL; MIC (S. dublin S7; [6]): >80 µg/mL; MIC (S. typhimurium S18; [7]): >80 µg/mL; MIC (Bord. bronchiseptica B08; [8]): >80 µg/mL; MIC (Past. haemolytica PA5; [9]): 80 µg/mL; MIC [3, 10]: >80 µg/mL; MIC [4, 11]: 20 µg/mL"
"CC(=CC(=O)OCc1cccc([S+](C)[O-])c1)CC1OCC(CC2OC2C(C)C(C)O)C(O)C1O (centres unmarked) [Example 6, m-Methylsulfinylbenzyl monate A]",5 µg/mL,5 µg/mL,10 µg/mL,5 µg/mL,2.5 µg/mL,> 10 µg/mL,> 100 µg/mL,12.5 µg/mL,2.5 µg/mL,25 µg/mL,25 µg/mL,> 80 µg/mL,> 80 µg/mL,> 80 µg/mL,> 80 µg/mL,80 µg/mL,> 80 µg/mL,5 µg/mL,–
"CC(=CC(=O)OCc1cccc(S(C)(=O)=O)c1)CC1OCC(CC2OC2C(C)C(C)O)C(O)C1O (centres unmarked) [Example 7, m-Methylsulfonylbenzyl monate A]",0.5 µg/mL,0.5 µg/mL,1 µg/mL,0.5 µg/mL,0.25 µg/mL,5 µg/mL,> 100 µg/mL,1 µg/mL,2.5 µg/mL,5 µg/mL,1 µg/mL,> 80 µg/mL,> 80 µg/mL,> 80 µg/mL,> 80 µg/mL,10 µg/mL,> 80 µg/mL,2.5 µg/mL,–
"CC(=CC(=O)OCc1ccc([S+](C)[O-])cc1)CC1OCC(CC2OC2C(C)C(C)O)C(O)C1O (centres unmarked) [Example 2, p- Methylsulphinylbenzyl monate A]",0.25 µg/mL,0.1 µg/mL,0.5 µg/mL,0.1 µg/mL,0.1 µg/mL,1 µg/mL,> 100 µg/mL,0.5 µg/mL,2.5 µg/mL,1 µg/mL,1 µg/mL,> 80 µg/mL,> 80 µg/mL,> 80 µg/mL,40 µg/mL,5 µg/mL,20 µg/mL,2.5 µg/mL,–
"CC(=CC(=O)OC(C)c1ccc(S(C)(=O)=O)cc1)CC1OCC(CC2OC2C(C)C(C)O)C(O)C1O (centres unmarked) [Example 9, 1-(p-Methylsulfonylphenyl)ethyl monate A]",1 µg/mL,–,1 µg/mL,0.5 µg/mL,0.05 µg/mL,10 µg/mL,> 128 µg/mL,2 µg/mL,4 µg/mL,8 µg/mL,4 µg/mL,> 80 µg/mL,> 80 µg/mL,> 80 µg/mL,> 80 µg/mL,40 µg/mL,80 µg/mL,5 µg/mL,–
"CC(=CC(=O)OCc1ccc(S(C)(=O)=O)cc1)CC1OCC(CC2OC2C(C)C(C)O)C(O)C1O (centres unmarked) [Example 3, p-Methylsulphonylbenzyl monate A]",0.1 µg/mL,0.1 µg/mL,0.25 µg/mL,0.05 µg/mL,0.05 µg/mL,0.5 µg/mL,> 100 µg/mL,0.25 µg/mL,1 µg/mL,0.5 µg/mL,0.5 µg/mL,> 80 µg/mL,> 80 µg/mL,> 80 µg/mL,20 µg/mL,5 µg/mL,80 µg/mL,1.25 µg/mL,–
m-Methylthiobenzyl monate A [Example 5],–,–,–,–,–,–,–,–,–,–,–,–,–,–,–,–,–,–,"MIC (M. suipneumoniae NB12): 0.5 µg/mL; MIC [1]: 0.25 µg/mL; MIC (M. suipneumoniae TAM 6N): 0.5 µg/mL; MIC (M. hyorhinis ATCC 25021): 0.25 µg/mL; MIC (M. dispar NCTC 10125): 0.1 µg/mL; MIC (M. gallisepticum S6): 5.0 µg/mL; MIC (Ps. aeruginosa 10662): >100 µg/mL; MIC [2]: 0.5 µg/mL; MIC (Staph. aureus Oxford): 0.5 µg/mL; MIC (Strep. agalactiae 2788-B): 1.0 µg/mL; MIC (Strep. pneumoniae CN33): 1.0 µg/mL; MIC (E. coli E1; [5]): >80 µg/mL; MIC (S. dublin S7; [6]): >80 µg/mL; MIC (S. typhimurium S18; [7]): >80 µg/mL; MIC (Bord. bronchiseptica B08; [8]): 10 µg/mL; MIC (Past. haemolytica PA5; [9]): 10 µg/mL; MIC [3, 10]: 5 µg/mL; MIC [4, 11]: .156 µg/mL"
"CSc1ccc(COC(=O)C=C(C)CC2OCC(CC3OC3C(C)C(C)O)C(O)C2O)cc1 (centres unmarked) [Example 1, p-Methylthiobenzyl monate A]",0.5 µg/mL,0.25 µg/mL,0.5 µg/mL,0.25 µg/mL,0.1 µg/mL,2.5 µg/mL,> 100 µg/mL,0.25 µg/mL,0.5 µg/mL,1 µg/mL,0.5 µg/mL,> 80 µg/mL,> 80 µg/mL,> 80 µg/mL,20 µg/mL,0.312 µg/mL,10 µg/mL,0.156 µg/mL,–
